Results from patent publication US8232293B2, “Crystalline forms of a potent HCV inhibitor” (Boehringer Ingelheim International GmbH, priority 2008, dated 2012).
Values after ≈ are worked out from the molar mass of the structure shown. Counter-ions that a name gives are not always drawn. Like-named read-outs stand apart in the source and are kept apart here.

What was measured:
[1] = Solubility in non-aqueous excipients (excess solid, HPLC of filtrate); type: physicochemical; details: room temperature, rotated up to 4 days; for Solubility in Ethanol: excipient Ethanol; for Solubility in Transcutol P: excipient Transcutol P; for solubility: thermodynamic from solid
Method: (§1) The solubility of Compound (1), as either Type A or the sodium salt form, was investigated in various non-aqueous solvents. The solutions were prepared by addition of excess Compound (1) to 0.25 ml to 1.0 ml of excipient in amber screw cap vials with Teflon lined caps. The samples were allowed to rotate at room temperature for up to 4 days. Sampling was done by centrifuging (14,000 rpm on the Eppendorf model 5415C table top centrifuge) and filtering through a 0.45 μm PVDF filter. The filtrate was subject to HPLC analysis for determining the solubility. HPLC analysis was conducted with an Agilent 1100 using gradient or isocratic conditions. Both methods used acetonitrile/water (each with 0.1% Trifluroacetic Acid) and an ACE C-18 stationary phase with column heating maintained at 40-45° C. The wavelength of detection was set at 220 nm or 264 nm. Wet solids were collected and analyzed for form change (stability) by XRPD.

[2] = Form change (stability) study of slurried solids by XRPD; type: physicochemical; details: slurried in either propylene glycol or ethanol, FIG. 5
Method: as §1
XRPD analyses for the form change studies were conducted on a Bruker AXS X-Ray Powder Diffractometer Model D8 Discover or D8 Advance, available from Bruker AXS, Inc. of Madison, Wis., using CuKα radiation. The tube power was set to either 40 kV and 40 mA or 40 kV and 30 mA. […]

HCV infection = experiment: Human clinical trials in HCV-infected patients; type: in vivo
HCV NS3 serine protease = HCV NS3 serine protease (Hepatitis C virus genotype 1a, UniProt P27958); details: cited from earlier work
Chain of HCV NS3 serine protease (P27958 1658-1711): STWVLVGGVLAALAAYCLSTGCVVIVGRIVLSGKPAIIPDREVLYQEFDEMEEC
Chain of HCV NS3 serine protease (P27958 1027-1657): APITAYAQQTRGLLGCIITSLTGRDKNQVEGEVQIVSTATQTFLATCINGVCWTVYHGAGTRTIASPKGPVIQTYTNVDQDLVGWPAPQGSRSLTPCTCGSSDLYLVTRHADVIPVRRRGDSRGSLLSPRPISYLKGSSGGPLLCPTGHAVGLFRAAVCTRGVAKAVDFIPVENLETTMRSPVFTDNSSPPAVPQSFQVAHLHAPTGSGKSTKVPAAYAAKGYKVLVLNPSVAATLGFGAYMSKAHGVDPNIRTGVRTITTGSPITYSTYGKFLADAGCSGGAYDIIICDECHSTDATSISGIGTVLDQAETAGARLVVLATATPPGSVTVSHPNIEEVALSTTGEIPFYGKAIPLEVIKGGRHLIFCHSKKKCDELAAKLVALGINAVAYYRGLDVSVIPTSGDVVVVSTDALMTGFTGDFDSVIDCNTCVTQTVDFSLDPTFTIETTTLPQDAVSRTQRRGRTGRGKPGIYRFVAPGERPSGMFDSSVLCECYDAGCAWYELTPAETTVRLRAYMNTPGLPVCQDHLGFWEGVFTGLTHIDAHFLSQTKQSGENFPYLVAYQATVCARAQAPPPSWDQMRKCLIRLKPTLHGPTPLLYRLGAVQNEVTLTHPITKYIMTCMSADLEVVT

| SMILES | Solubility in Capmul MCM ([1]; excipient Capmul MCM) | Solubility in Capmul PG8 ([1]; excipient Capmul PG8) | Solubility in Ethanol [1] | Solubility in Labrasol ([1]; excipient Labrasol) | Solubility in PEG 400 ([1]; excipient PEG 400) | Solubility in Transcutol P [1] | Form stability (change in XRPD pattern of remaining solid) ([2]; listed as Type A form of Compound (1)) | solubility ([1]; Capmul MCM (non-aqueous excipient), oil or lipid, excipient Capmul MCM, read-out: Solubility in Capmul MCM) | solubility ([1]; Capmul PG8 (non-aqueous excipient), oil or lipid, excipient Capmul PG8, read-out: Solubility in Capmul PG8) | solubility ([1]; Labrasol (non-aqueous excipient), oil or lipid, excipient Labrasol, read-out: Solubility in Labrasol) | solubility ([1]; PEG 400 (non-aqueous excipient), organic solvent or mixture, excipient PEG 400, read-out: Solubility in PEG 400) | solubility ([1]; Propylene Glycol (non-aqueous excipient), organic solvent or mixture, excipient Propylene Glycol, read-out: Solubility in Propylene Glycol) | Form stability (change in XRPD pattern of remaining solid) ([2]; listed as crystalline sodium salt form of Compound (1)) | Effectiveness in treating HCV-infected patients (HCV infection) | Inhibitory activity against HCV NS3 serine protease (HCV NS3 serine protease) |
| --- | --- | --- | --- | --- | --- | --- | --- | --- | --- | --- | --- | --- | --- | --- | --- |
| C=C[C@@H]1C[C@]1(NC(=O)[C@@H]1C[C@@H](Oc2cc(-c3csc(NC(=O)C(C)C)n3)nc3c(Br)c(OC)ccc23)CN1C(=O)[C@@H](NC(=O)OC1CCCC1)C(C)(C)C)C(=O)O [Type A of Compound (1)] | 220.6 ± 7.4 mg/mL (≈ 254 mM) | 172.6 ± 8.3 mg/mL (≈ 198 mM) | 0.9 ± 0.1 mg/mL (≈ 1.03 mM) | 146.7 ± 5.1 mg/mL (≈ 169 mM) | 136.8 ± 3.2 mg/mL (≈ 157 mM) | 24.3 ± 0.3 mg/mL (≈ 27.9 mM) | clear form change |  |  |  |  |  |  |  |  |
| C=C[C@@H]1C[C@]1(NC(=O)[C@@H]1C[C@@H](Oc2cc(-c3csc(NC(=O)C(C)C)n3)nc3c(Br)c(OC)ccc23)CN1C(=O)[C@@H](NC(=O)OC1CCCC1)C(C)(C)C)C(=O)O [Compound (1) Na salt] |  |  | 187.0 ± 23.9 mg/mL |  |  | 430.6 ± 14.7 mg/mL |  | 262.5 ± 2.6 mg/mL | < 169 mg/mL | 175 ± 11.8 mg/mL | 234 ± 34 mg/mL | > 468 mg/mL | no change in the XRPD pattern | demonstrated effectiveness |  |
| C=C[C@@H]1C[C@]1(NC(=O)[C@@H]1C[C@@H](Oc2cc(-c3csc(NC(=O)C(C)C)n3)nc3c(Br)c(OC)ccc23)CN1C(=O)[C@@H](NC(=O)OC1CCCC1)C(C)(C)C)C(=O)O [Compound (1)] |  |  |  |  |  |  |  |  |  |  |  |  |  |  | selective and potent inhibitor |
